# Earlier results in patent US20080097335A1, “OCULAR IMPLANT DELIVERY ASSEMBLIES” (ALLERGAN, INC., priority 2006, published 2008).
# Details: efficacy in vivo; 25 mg dose of hydrocortisone equivalent to 1 mg dose of dexamethasone
smiles,measurement,value
C[C@]12CCC(=O)C=C1CC[C@@H]1[C@@H]2[C@@H](O)C[C@@]2(C)[C@H]1CC[C@]2(O)C(=O)CO [hydrocortisone],potency relative to dexamethasone,approximately twenty-five fold less potent than dexamethasone
